Where “and” joins values, the source holds several entries; their conditions need not be identical. Identical values can stand only once. Entries after “also recorded” stand apart in the source; their conditions may differ. Like-named read-outs stand apart in the source and are kept apart here.
Tests used:
[1] = CINJ TPA Phase 1 study, relapsed/refractory malignancies: clinical response and toxicity; format: in vivo, human
From the text: 12-O-tetradecanoylphorbol-13-acetate (TPA), an activator of protein kinase C, is being developed as a therapeutic agent for patients with acute myelogenous leukemia (AML) because of its profound effects on intracellular signaling pathways, it's capacity to induce differentiation and/or apoptosis in cell lines, and preliminary clinical data from China indicating effectiveness in myeloid malignancies (Han Z T, Zhu X X, Yang R Y, Sun J Z, Tian G F, Liu X J et al. Effect of intravenous infusions of 12-O-tetradecanoylphorbol-13-acetate (TPA) in patients with myelocytic leukemia: preliminary studies on therapeutic efficacy and toxicity. Proc Natl Acad Sci USA 1998; 95(9):5357-5361). A recently completed Investigator-initiated, Phase I study at The Cancer Institute of New Jersey/Robert Wood Johnson Medical School/UMDNJ represented the only FDA-approved study to administer TPA to patients in the United States and provided a unique opportunity to study the in vivo effects of TPA in patients with relapsed/refractory malignancies for which no standard therapies exist. Thus far clinical evaluation of TPA as a single agent has documented clinical safety when administered on days 1-5 and 8-12.
The initial CINJ TPA Phase 1 study enrolled 35 patients [23 with relapsed/refractory AML, 2 with other myeloid malignancies (CML-blast crisis, myelodysplasia with excess blasts), 3 with Hodgkin's Disease, 3 with non-Hodgkin's lymphoma and 4 with solid tumors]. The majority of patients had relapsed/refractory AML. Our clinical results include one AML patient with stable disease for >5 months, who received 8 TPA infusions. In a second AML patient, a pronounced (5-fold) decline in the number of circulating blasts was seen following TPA administration. This decline in leukemic blasts persisted for 4 weeks; the patient eventually died from a fungal infection.

ERK phosphorylation = experiment: Ex vivo ERK phosphorylation in clinical AML samples (Western analysis); format: cell-based, human
[2] = 5 patients, 0.125 mg/m^2, cited from earlier work
primary AML cells [3] = experiment: Ex vivo cytotoxicity on primary AML cells (cell viability and apoptosis assays)
[4] = AML patients, 48 h treatment with induction chemotherapy
From the text: Clinical trial. […] The study was an open-label trial. […] Inclusion criteria included non-pregnant patients with an Eastern Cooperative Oncology Group performance status of 0 to 3, a bilirubin level more than twice the upper limits of normal, aspartate aminotransferase/alanine aminotransferase level more than thrice the upper limits of normal, and creatinine levels more than 1.5 times the upper limits of normal. Patients with current or recent gastrointestinal bleeding were excluded. […] Dexamethasone was administered at a dose of 10 mg p.o. every 6 h beginning at hour 0 and continuing until hour 48. […] Induction chemotherapy consisted of 3 days of idarubicin in combination with a 7-day continuous infusion of cytarabine. Some patients over the age of 60 received a reduced dose of idarubicin and the addition of etoposide (32).

primary AML cells [5] = system: primary AML cells

SMILES	DLT's reported ([1]; CINJ TPA study)	Patients with grade III non-hematologic dose limiting toxicities (DLT) ([1]; last cohort, 0.188 mg/m^2 d1-5, 8-12)	Maximum tolerated TPA dose as a single agent ([1]; on d1-5 and 8-12)	Duration of stable disease ([1]; one AML patient, 8 TPA infusions)	Clinical response of chest wall mass ([1]; patient with relapsed and refractory Hodgkin's disease)	Persistence of decline in leukemic blasts ([1]; second AML patient)	Decline in the number of circulating blasts ([1]; second AML patient, following TPA administration)	ERK phosphorylation (ERK phosphorylation; all primary cultures analyzed by Western analysis, by 1 hour in culture)	TPA concentration (as low as) giving detectable increases in ERK phosphorylation (ERK phosphorylation; ex vivo exposure of clinical AML samples)	TPA level in blood, average ([2]; immediately post-infusion)	TPA level in blood, average ([2]; one hour post infusion)	Cytotoxic effects by TPA concentration (primary AML cells [3]; clinical AML samples ex vivo, 32 nM vs 3.2 nM, unpublished observations)	Cytotoxic effects, cell viability and apoptosis assays (primary AML cells [3]; small panel of clinical AML samples, subset of AML cases)	Unusual untoward effects attributable to the agent [4]	Effect on TPA cytotoxicity (primary AML cells [5])
CCCCCCCCCCCCCC(=O)O[C@@H]1[C@@H](C)[C@@]2(O)[C@@H](C=C(CO)C[C@]3(O)C(=O)C(C)=C[C@@H]23)[C@@H]2C(C)(C)[C@]12OC(C)=O [TPA, 12-O-tetradecanoylphorbol-13-acetate]	grade 3 dyspnea, grade 3 hypoxia and a grade 3 episode of hypotension	2 out of 3	0.125 mg/m^2/d	> 5 months	partial remission	4 weeks	5 fold	strongly induced	0.032 nM	1.75 ng/ml blood and 2.8 nM	0.93 ng/ml blood and 1.5 nM	32 nM is more cytotoxic than 3.2 nM	direct cytotoxic effects	–	–
C[C@@H]1C[C@H]2[C@@H]3CCC4=CC(=O)C=C[C@]4(C)[C@@]3(F)[C@@H](O)C[C@]2(C)[C@@]1(O)C(=O)CO [dexamethasone]	–	–	–	–	–	–	–	–	–	–	–	–	–	did not detect any unusual untoward effects; also recorded: did not, detect any unusual untoward elects	enhance TPA cytotoxicity
